Test results published in US9908868B2, “Isoindolinone compounds as GPR119 modulators for the treatment of diabetes, obesity, dyslipidemia and related disorders” (SANOFI, priority 2014, dated 2018).
pEC50: −log10 of the molar value.

These compounds were tested against T1, human GPR119 (Homo sapiens, UniProt Q8TDV5) (assay: Functional cellular assay measuring GPR119-mediated cAMP release (HTRF) in HEK-293 cells stably expressing recombinant human GPR119). Settings: cAMP response, cell line expressing human GPR119, 30 minutes at room temperature.
T1 construct: expressed in transfected cells
T1 sequence (Q8TDV5 1-335): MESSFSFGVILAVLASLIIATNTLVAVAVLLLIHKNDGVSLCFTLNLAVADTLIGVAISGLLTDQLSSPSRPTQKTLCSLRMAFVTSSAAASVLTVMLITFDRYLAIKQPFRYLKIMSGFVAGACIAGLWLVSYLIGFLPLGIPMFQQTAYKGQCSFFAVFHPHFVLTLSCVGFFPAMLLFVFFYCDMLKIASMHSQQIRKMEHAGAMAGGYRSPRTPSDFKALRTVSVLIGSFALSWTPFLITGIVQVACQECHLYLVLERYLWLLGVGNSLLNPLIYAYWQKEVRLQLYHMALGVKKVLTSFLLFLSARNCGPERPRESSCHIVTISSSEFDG
Format: cell-based
Method: Functional Cellular Assays Measuring GPR119-Mediated cAMP Release
Compounds of the invention, which are agonists of GPR119, were characterized by functional assays measuring the cAMP response of HEK-293 cell lines stably expressing recombinant GPR119 from man, mouse or rat, or by using a hamster cell line HIT-T15 expressing GPR119 endogenously. The cAMP content was determined using a kit based on homogenous time-resolved fluorescence (HTRF) from Cisbio Corp. (cat. no. 62AM4PEC). For preparation, cells were split into T175 culture flasks and grown to near confluency in medium (DMEM/10% FCS for HEK-293 cells, and F-12K medium/10% horse serum/2.5% FCS for HIT-T15 cells, respectively). Medium was then removed and cells washed with PBS lacking calcium and magnesium ions, followed by proteinase treatment with accutase (Sigma-Aldrich, cat. no. A6964). Detached cells were washed and resuspended in assay buffer (1×HBSS; 20 mM HEPES, 0.1% BSA, 2 mM IBMX) and cellular density determined. They were then diluted to 400000 cells/mL and 25 μL-aliquots dispensed to the wells of 96-well plates. For measurement, 25 μL of test compound in assay buffer was added and incubated for 30 minutes at room temperature. After addition of HTRF reagents diluted in lysis buffer, the plates were incubated for 1 hour, followed by measuring the fluorescence ratio at 665 vs. 620 nm. Potency of the agonists was quantified by determining the concentrations that caused 50% of the maximal response/activation (EC50). See Table 7 for exemplary data obtained using the cell line expressing human GPR119.

Question: How did the pEC50 turn out when `CN(C)C(=O)C1NC(=O)c2cc(N3CC[C@@H](Oc4ccc(OCC5CC5)nc4)C3=O)ccc2N1C` (single isomer, unassigned) [Example 1-41] was run?
Answer: The pEC50 was 5.69.

Question: With `CN(C)C(=O)C1NC(=O)c2cc(N3CC[C@@H](Oc4ccc(OCC5CC5)nc4)C3=O)ccc2N1C` (single isomer, unassigned) [Example 1-42] as the compound, how does the pEC50 read?
Answer: The pEC50 was 6.44.

Question: With `CC(C)(C)OC(=O)CN1Cc2c(F)cc(N3CC[C@@H](Oc4ccc(OCC5CC5)nc4)C3=O)cc2C1=O` [Example 1-01, Tert-butyl 2-[6-[(3R)-3-[[6-(cyclopropylmethoxy)-3-pyridyl]oxy]-2-oxo-pyrrolidin-1-yl]-4-fluoro-1-oxo-isoindolin-2-yl]acetate] as the compound, how does the pEC50 read?
Answer: The pEC50 was 7.05.

Question: `CC(C(=O)O)N1Cc2ccc(N3CC[C@@H](Oc4ccc(OCC5CC5)nc4)C3=O)cc2C1=O` (stereo partly drawn) [Example 1-02, 2-[6-[(3R)-3-[[6-(cyclopropylmethoxy)-3-pyridyl]oxy]-2-oxo-pyrrolidin-1-yl]-1-oxo-isoindolin-2-yl]propanoic acid] was tested. Which pEC50 did it give?
Answer: The pEC50 was 5.69.

Question: `CN1C(=O)c2cc(N3CC[C@@H](Oc4ccc(OCC5CC5)nc4)C3=O)ccc2C1CC(=O)O` (stereo partly drawn) [Example 1-03, 2-[5-[(3R)-3-[[6-(cyclopropylmethoxy)-3-pyridyl]oxy]-2-oxo-pyrrolidin-1-yl]-2-methyl-3-oxo-isoindolin-1-yl]acetic acid] was tested. Which pEC50 did it give?
Answer: The pEC50 was 4.96.

Question: How did the pEC50 turn out when `COC(=O)C(C)N1Cc2ccc(N3CC[C@@H](Oc4ccc(OCC5CC5)nc4)C3=O)cc2C1=O` (stereo partly drawn) [Example 1-04, methyl 2-[6-[(3R)-3-[[6-(cyclopropylmethoxy)-3-pyridyl]oxy]-2-oxo-pyrrolidin-1-yl]-1-oxo-isoindolin-2-yl]propanoate] was run?
Answer: The pEC50 was 6.27.

Question: How did the pEC50 turn out when `COC(=O)CC1c2ccc(N3CC[C@@H](Oc4ccc(OCC5CC5)nc4)C3=O)cc2C(=O)N1C` (stereo partly drawn) [Example 1-05, methyl 2-[5-[(3R)-3-[[6-(cyclopropylmethoxy)-3-pyridyl]oxy]-2-oxo-pyrrolidin-1-yl]-2-methyl-3-oxo-isoindolin-1-yl]acetate] was run?
Answer: The pEC50 was 6.50.

Question: How did the pEC50 turn out when `O=C1OCCC1N1Cc2ccc(N3CC[C@@H](Oc4ccc(OCC5CC5)nc4)C3=O)cc2C1=O` (stereo partly drawn) [Example 1-06, 6-[(3R)-3-[[6-(cyclopropylmethoxy)-3-pyridyl]oxy]-2-oxo-pyrrolidin-1-yl]-2-(2-oxotetrahydrofuran-3-yl)isoindolin-1-one] was run?
Answer: The pEC50 was 6.82.

Question: How did the pEC50 turn out when `CN(C)C(=O)CC1c2ccc(N3CC[C@@H](Oc4ccc(OCC5CC5)nc4)C3=O)cc2C(=O)N1C` (stereo partly drawn) [Example 1-07, 2-[5-[(3R)-3-[[6-(cyclopropylmethoxy)-3-pyridyl]oxy]-2-oxo-pyrrolidin-1-yl]-2-methyl-3-oxo-isoindolin-1-yl]-N,N-dimethyl-acetamide] was run?
Answer: The pEC50 was 5.72.

Question: With `CCCN1Cc2ccc(N3CC[C@@H](Oc4ccc(OCC5CC5)nc4)C3=O)cc2C1=O` [Example 1-08, 6-[(3R)-3-[[6-(cyclopropylmethoxy)-3-pyridyl]oxy]-2-oxo-pyrrolidin-1-yl]-2-propyl-isoindolin-1-one] as the compound, how does the pEC50 read?
Answer: The pEC50 was 5.98.

Question: With `CC(C)Sc1ccc(O[C@@H]2CCN(c3ccc4c(c3)C(=O)N(CC(=O)N(C)C)C4)C2=O)cn1` [Example 1-09, 2-[6-[(3R)-3-[(6-isopropylsulfanyl-3-pyridyl)oxy]-2-oxo-pyrrolidin-1-yl]-1-oxo-isoindolin-2-yl]-N,N-dimethyl-acetamide] as the compound, how does the pEC50 read?
Answer: The pEC50 was 6.79.

Question: With `Cn1nnc(N2Cc3ccc(N4CC[C@@H](Oc5ccc(OCC6CC6)nc5)C4=O)cc3C2=O)n1` [Example 1-10, 6-[(3R)-3-[[6-(cyclopropylmethoxy)-3-pyridyl]oxy]-2-oxo-pyrrolidin-1-yl]-2-(2-methyltetrazol-5-yl)isoindolin-1-one] as the compound, how does the pEC50 read?
Answer: Its pEC50 is 6.57.

Question: How did the pEC50 turn out when `CN(C)C(=O)CN1Cc2ncc(N3CC[C@@H](Oc4ccc(OCC5CC5)nc4)C3=O)cc2C1=O` [Example 1-11, 2-[3-[(3R)-3-[[6-(cyclopropylmethoxy)-3-pyridyl]oxy]-2-oxo-pyrrolidin-1-yl]-5-oxo-7H-pyrrolo[3,4-b]pyridin-6-yl]-N,N-dimethyl-acetamide] was run?
Answer: Its pEC50 is 6.69.

Question: How did the pEC50 turn out when `CN(C)C(=O)CN1C(=O)c2cc(N3CC[C@@H](Oc4ccc(OCC5CC5)nc4)C3=O)ccc2C1(C)C` [Example 1-12, 2-[5-[(3R)-3-[[6-(cyclopropylmethoxy)-3-pyridyl]oxy]-2-oxo-pyrrolidin-1-yl]-1,1-dimethyl-3-oxo-isoindolin-2-yl]-N,N-dimethyl-acetamide] was run?
Answer: Its pEC50 is 4.53.

Question: How did the pEC50 turn out when `CC1c2ccc(N3CC[C@@H](Oc4ccc(OCC5CC5)nc4)C3=O)cc2C(=O)N1CC(=O)N(C)C` (stereo partly drawn) [Example 1-13, 2-[5-[(3R)-3-[[6-(cyclopropylmethoxy)-3-pyridyl]oxy]-2-oxo-pyrrolidin-1-yl]-1-methyl-3-oxo-isoindolin-2-yl]-N,N-dimethyl-acetamide] was run?
Answer: The pEC50 was 6.63.

Question: How did the pEC50 turn out when `CC1c2ccc(N3CC[C@@H](Oc4ccc(OCC5CC5)nc4)C3=O)cc2C(=O)N1CC(=O)O` (stereo partly drawn) [Example 1-14, 2-[5-[(3R)-3-[[6-(cyclopropylmethoxy)-3-pyridyl]oxy]-2-oxo-pyrrolidin-1-yl]-1-methyl-3-oxo-isoindolin-2-yl]acetic acid] was run?
Answer: The pEC50 was 5.35.

Question: With `COC(=O)CN1C(=O)c2cc(N3CC[C@@H](Oc4ccc(OCC5CC5)nc4)C3=O)ccc2C1C` (stereo partly drawn) [Example 1-15, methyl 2-[5-[(3R)-3-[[6-(cyclopropylmethoxy)-3-pyridyl]oxy]-2-oxo-pyrrolidin-1-yl]-1-methyl-3-oxo-isoindolin-2-yl]acetate] as the compound, how does the pEC50 read?
Answer: Its pEC50 is 6.66.

Question: With `CN(C)C(=O)CN1Cc2ncc(N3CC[C@@H](Oc4ccc(C(=O)CC5CC5)cc4)C3=O)cc2C1=O` [Example 1-16, 2-[3-[(3R)-3-[4-(2-cyclopropylacetyl)phenoxy]-2-oxo-pyrrolidin-1-yl]-5-oxo-7H-pyrrolo[3,4-b]pyridin-6-yl]-N,N-dimethyl-acetamide] as the compound, how does the pEC50 read?
Answer: Its pEC50 is 6.44.

Question: `CS(=O)(=O)CN1Cc2c(F)cc(N3CC[C@@H](Oc4ccc(OCC5CC5)nc4)C3=O)cc2C1=O` [Example 1-17, 6-[(3R)-3-[[6-(cyclopropylmethoxy)-3-pyridyl]oxy]-2-oxo-pyrrolidin-1-yl]-4-fluoro-2-(methylsulfonylmethyl)isoindolin-1-one] was tested. Which pEC50 did it give?
Answer: Its pEC50 is 7.52.

Question: `Cn1nnc(CN2Cc3c(F)cc(N4CC[C@@H](Oc5ccc(OCC6CC6)nc5)C4=O)cc3C2=O)n1` [Example 1-18, 6-[(3R)-3-[[6-(cyclopropylmethoxy)-3-pyridyl]oxy]-2-oxo-pyrrolidin-1-yl]-4-fluoro-2-[(2-methyltetrazol-5-yl)methyl]isoindolin-1-one] was tested. Which pEC50 did it give?
Answer: Its pEC50 is 7.19.

Question: With `C[S+]([O-])CN1Cc2c(F)cc(N3CC[C@@H](Oc4ccc(OCC5CC5)nc4)C3=O)cc2C1=O` (stereo partly drawn) [Example 1-19, 6-[(3R)-3-[[6-(cyclopropylmethoxy)-3-pyridyl]oxy]-2-oxo-pyrrolidin-1-yl]-4-fluoro-2-(methylsulfinylmethyl)isoindolin-1-one] as the compound, how does the pEC50 read?
Answer: The pEC50 was 7.15.

Question: `CSCN1Cc2c(F)cc(N3CC[C@@H](Oc4ccc(OCC5CC5)nc4)C3=O)cc2C1=O` [Example 1-20, 6-[(3R)-3-[[6-(cyclopropylmethoxy)-3-pyridyl]oxy]-2-oxo-pyrrolidin-1-yl]-4-fluoro-2-(methylsulfanylmethyl)isoindolin-1-one] was tested. Which pEC50 did it give?
Answer: Its pEC50 is 7.34.

Question: With `CN(C)C(=O)CN1Cc2c(F)cc(N3CC[C@@H](Oc4ccc(OC5CC5)nc4)C3=O)cc2C1=O` [Example 1-21, 2-[6-[(3R)-3-[[6-(cyclopropoxy)-3-pyridyl]oxy]-2-oxo-pyrrolidin-1-yl]-4-fluoro-1-oxo-isoindolin-2-yl]-N,N-dimethyl-acetamide] as the compound, how does the pEC50 read?
Answer: The pEC50 was 6.46.
